Reference: patent US11994513B2, “Diagnostic and prognostic methods for estrogen-induced cancers” (The University of Newcastle, priority 2018, dated 2024)

Columns and labels:
ALPPL2 mRNA expression = assay: Quantitative real-time PCR of ALPPL2 mRNA in hormone-treated Ishikawa organoids; assay type: cell-based, human; conditions: FIG. 2C
Procedure: (§1) 5,000 Ishikawa cells/well were seeded in triplicate in 100 μL medium onto 96-well tissue culture plates coated with a thin layer of reduced growth factor basement membrane extract (Cultrex® RGF BME: Trevigen) and were allowed to form organoids. After 24 hours, the organoids were subjected to desired hormonal treatments: 10 nmol/L estrogen ((β-Estradiol, Sigma #E8875) and 100 nmol/L progesterone (Medroxyprogesterone 17-acetate, Sigma #M1629). The culture medium containing desired hormone concentration was changed on every 48 hours. On day 7, colony size was measured and images were photographed using JuLI™ Stage Real-Time Cell History Recorder (NanoEnTek) in an incubator at 37° C. humidified with 5% CO2. 72 hours post-treatment, cells were incubated with CellTiter-Glo® 3D Reagent (Promega) for 30 minutes at room temperature and luminescence signal was recorded using the FLUOstar OPTIMA (BMG Labtech). […]
Total RNA was isolated from estrogen or progesterone treated mouse uterus and Ishikawa cells using RNeasy Mini kit (Qiagen) following manufacturer's instructions. […] Quantitative real-time PCR (Q-PCR) was performed using RT^2 SYBR Green ROX qPCR Mastermix (Qiagen) on a 7900 HT FAST Thermocycler (Applied Biosystems) through a pre-incubation step, and 40 amplification cycles (including denaturation, annealing and extension segments). […]

mice uteri = assay: Hormone pellet treatment of ovariectomized mice: uterine histology and ALPPL2 immunohistochemistry; assay type: in vivo, C57BL/6 mice
ALPPL2 protein = assay: Western blot of ALPPL2 protein in hormone-treated Ishikawa cells and organoids; assay type: cell-based, human; conditions: Ishikawa cells and organoids treated with E2 and/or P4, FIGS. 2D and 2E
Procedure: as §1
Human endometrial cancer samples, mouse uterine tissue, and Ishikawa cells were lysed in ice-cold RIPA (radioimmunoprecipitation assay) buffer (50 mmol/L Tris-HCl pH 7.5, 150 mmol/L NaCl, 1% NP-40, 0.5% Sodium deoxycholate, 0.1% SDS) containing protease and phosphatase inhibitors (Sigma). […] The membrane was washed again in TBS-T, developed using a chemiluminescent substrate (Millipore) for detection of HRP and the protein bands were detected by chemiluminescence (Fujifilm LAS-4000). […]

Ishikawa organoids = assay: 3D organoid formation assay: colony size and proliferation (CellTiter-Glo 3D); assay type: cell-based, human
Procedure: The human endometrial adenocarcinoma cell line Ishikawa (Sigma #99040201) was cultured in MEM (HyClone) medium supplemented with 5% heat-inactivated FBS (Bovogen Biologicals), 2 mmol/L L-glutamine (HyClone), and antibiotics (50 U/mL penicillin, 50 mg/L streptomycin; Gibco) in a humidified atmosphere at 37° C. containing 5% CO2. Cell line authentication was done by short tandem repeat (STR) DNA profiling method and mycoplasma contamination in cells was routinely conducted using MycoAlert™ Plus Mycoplasma detection kit (Lonza). 5,000 Ishikawa cells/well were seeded in triplicate in 100 μL medium onto 96-well tissue culture plates coated with a thin layer of reduced growth factor basement membrane extract (Cultrex® RGF BME: Trevigen) and were allowed to form organoids. After 24 hours, the organoids were subjected to desired hormonal treatments: 10 nmol/L estrogen ((β-Estradiol, Sigma #E8875) and 100 nmol/L progesterone (Medroxyprogesterone 17-acetate, Sigma #M1629). The culture medium containing desired hormone concentration was changed on every 48 hours. On day 7, colony size was measured and images were photographed using JuLI™ Stage Real-Time Cell History Recorder (NanoEnTek) in an incubator at 37° C. humidified with 5% CO2. 72 hours post-treatment, cells were incubated with CellTiter-Glo® 3D Reagent (Promega) for 30 minutes at room temperature and luminescence signal was recorded using the FLUOstar OPTIMA (BMG Labtech). Ishikawa 3D organoids were fixed in 4% paraformaldehyde (Electron Microscopy Sciences, ProSciTech) for 20 minutes and processed for immunofluorescence, as described previously (Sahoo et al, Oncotarget, 2017, 8:71400-17).

| Compound | ALPPL2 mRNA expression (ALPPL2 mRNA expression; E2 treated organoids, 10 nmol/L) | ALPPL2 expression in uterus (immunohistochemical analysis) (mice uteri; E2 pellet for 3 months, FIG. 3A) | endometrial hyperplasia (histological analysis) (mice uteri; E2 pellet for 3 months, compared to E2 and P4 treated uteri, data not shown) | ALPPL2 protein expression (western blot, total cell lysate) (ALPPL2 protein) | proliferation of Ishikawa organoids (Ishikawa organoids; E2 10 nmol/L, 3D culture, 72 hours post-treatment, FIG. 2B) | size of Ishikawa organoids (Ishikawa organoids; E2 10 nmol/L, 3D culture, day 7, FIG. 2A) | effect on E2-induced ALPPL2 mRNA upregulation (ALPPL2 mRNA expression; P4 100 nmol/L with E2 10 nmol/L) | effect on E2-induced ALPPL2 expression in uterus (immunohistochemical analysis) (mice uteri; E2 and P4 pellets for 3 months, FIG. 3A) | mitogenic action of E2 on Ishikawa organoids (size and proliferation) (Ishikawa organoids; P4 100 nmol/L with E2 10 nmol/L, FIGS. 2A and 2B) |
| --- | --- | --- | --- | --- | --- | --- | --- | --- | --- |
| β-Estradiol [E2] | significantly upregulated | increase in ALPPL2 expression | increased endometrial hyperplasia | Overexpression of ALPPL2 | increased | increased |  |  |  |
| CC(=O)[C@H]1CC[C@H]2[C@@H]3CCC4=CC(=O)CC[C@]4(C)[C@H]3CC[C@]12C [P4, progesterone] |  |  |  |  |  |  | inhibited this effect | attenuated the effect of E2 | counterbalanced |
